Assay results from patent US20100311656A1 (priority 2003, published 2010).

What was measured:
[1] = tested on: SARS-CoV (Urbani); format: in vivo, mice
[2] = mouse, in vivo
[3] = 0.2 mg/kg or 2 mg/kg s.c.; no toxicity controls included; cited from earlier work
[4] = subcutaneously injected; cited from earlier work
[5] = cited from earlier work

## Ac-SDAAVDTSSEITTKDLKEKKEVVEEAEN-OH [thymosin alpha-1]
[1]; mouse, in vivo
  Effect on virus lung titers: significantly reduced virus lung titers
  Reduction of virus lung titers: about one
  Reduction of virus titers: approximately 0.5 log10 unit
  Virus titer reductions (range over regimens): 0.5-1.0 log10 units
[2]
  Tolerability of treatments: very well tolerated
[3]
  Tolerability of the doses used (previously shown): well tolerated
[4]
  Plasma half-life: about two
[5]
  Dose found to be safe for humans: ≤ 16 mg/kg body weight/day

## Poly-ICLC
[1]; 50 μg/mouse i.n., positive control, P<0.01
  Inhibition of lung virus titers: ~3 log 10 units
[1]; lung, day 3 after infection, 50 μg/mouse i.n., -24 h, +12 h, mean ± SD, P < 0.01 vs buffer
  Virus Titer (Log10 CCID50/g): 2.9 ± 0.1 Log10 CCID50/g
[2]
  Mean Body Weight Change: 0.0 g
